Data reported in patent publication US20050148534A1, “Small molecule compositions and methods for increasing drug efficiency using compositions thereof” (priority 2003, published 2005).
Read-outs that look alike come from different tables or passages of the source.

Legend:
[1] = biological target: T1, TK1 (Homo sapiens, UniProt P04183); conditions: substrate activity; literature (Johansson et al.; Eriksson et al., BBCR 1991; 176, 586), source per Table 3; cited from earlier work
T1 sequence (P04183 1-234): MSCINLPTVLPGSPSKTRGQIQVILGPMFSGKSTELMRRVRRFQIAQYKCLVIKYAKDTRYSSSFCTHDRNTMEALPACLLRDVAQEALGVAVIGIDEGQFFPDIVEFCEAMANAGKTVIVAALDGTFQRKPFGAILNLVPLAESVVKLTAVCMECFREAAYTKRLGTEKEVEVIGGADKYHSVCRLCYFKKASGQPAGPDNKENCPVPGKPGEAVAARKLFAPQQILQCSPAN

[2] = biological target: T2, TK2 (Homo sapiens, UniProt O00142); parameters: unit not given here; conditions: substrate activity, literature (Johansson et al.; Eriksson et al.; Wang et al.), source per Table 3, cited from earlier work
T2 sequence (O00142 34-265): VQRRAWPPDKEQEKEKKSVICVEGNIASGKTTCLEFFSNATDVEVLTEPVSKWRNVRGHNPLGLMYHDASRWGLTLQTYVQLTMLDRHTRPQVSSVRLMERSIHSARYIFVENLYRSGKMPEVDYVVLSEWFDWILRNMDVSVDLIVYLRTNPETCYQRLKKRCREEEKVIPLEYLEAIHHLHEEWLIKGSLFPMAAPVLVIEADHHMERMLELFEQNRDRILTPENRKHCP

[3] = biological target: deoxycytidine kinase (dCK) (Homo sapiens, UniProt P27707); conditions: substrate activity; literature (Johansson et al.; Eriksson et al.; Wang et al.), source per Table 3; cited from earlier work
[4] = tested on: tubulin; assay: Fluorescence-based microtubule polymerization assay (MPA); format: biochemical; conditions: mean percentage of paclitaxel or vinblastine activity; 0.75-10 micromolar
Source text: Drug-linker constructs may further be screened using functional assays predictive of biological activity. […] Tubulin assembly or inhibition thereof may be monitored by fluorescence using the CytoDYNAMIX Screen™ 10 kit available from Cytoskeleton (1830 S. Acoma St., Denver, Colo.). […] Emission is monitored at 405 nm with excitation at 360 nm. […] Tubulin assembly or inhibition may also be monitored by light scattering which is approximated by the apparent absorption at 350 nm. For paclitaxel drug conjugates BSA is employed to prevent aggregation and glycerol, which is a tubulin polymerization enhancer, is omitted from the kit to increase the signal to noise ratio.
The assay kit (#BK011) was purchased from Cytoskeleton (Denver, Colo.). The assays were carried out according to the manufacturer's instructions, except that 1 mg/ml BSA (Sigma #A3059) was included in all assays. […] Parent drugs and conjugates were tested at 0.75, 1.5, 3 and 10 micromolar final concentration and results represent a comparison of conjugate and parent drug curves obtained from the linear range of the dose responses.

Sequence of deoxycytidine kinase (dCK) (P27707 whole entry, species assumed): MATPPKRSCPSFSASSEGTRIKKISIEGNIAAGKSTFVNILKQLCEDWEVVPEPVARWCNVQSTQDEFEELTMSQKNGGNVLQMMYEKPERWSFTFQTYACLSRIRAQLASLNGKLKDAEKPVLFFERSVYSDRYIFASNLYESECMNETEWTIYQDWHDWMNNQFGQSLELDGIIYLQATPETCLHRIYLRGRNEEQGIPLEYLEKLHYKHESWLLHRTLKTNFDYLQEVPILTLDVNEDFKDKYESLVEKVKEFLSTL

SMILES	TK1 [1]	TK2 [2]	dCK [3]	other results
Cc1cn([C@@H]2O[C@H](CO)[C@@H](O)[C@@H]2F)c(=O)[nH]c1=O [R2 = CH3, R5 = F (FMAU), FMAU]	45	100		
CCc1cn([C@H]2C[C@H](O)[C@@H](CO)O2)c(=O)[nH]c1=O [R2 = Et, R4 = H, R3 = OH]	80	10		
Nc1ccn([C@@H]2O[C@H](CO)[C@@H](O)[C@@H]2O)c(=O)n1 [R4 = H, R5 = OH, R3 = OH (Cytosar, AraC), AraC]	<1	<1		
Nc1cc[nH]c(=O)n1 [R4 = OH, R5 = H, R2 = H (Cytosine), Cytosine]	<1	<1	20	
Cc1cn([C@H]2CC[C@@H](CO)O2)c(=O)[nH]c1=O [R4 = H, R3 = H]	40	4	<1	
Cc1cn([C@H]2C[C@H](F)[C@@H](CO)O2)c(=O)[nH]c1=O [R4 = H, R3 = F (FLT), FLT]	30	<1	<1	
O=c1[nH]c(=O)n([C@@H]2O[C@H](CO)[C@@H](O)[C@@H]2F)cc1I [R2 = I, R5 = F (FIAU), FIAU]	42	90		
O=c1[nH]c(=O)n([C@H]2C[C@H](O)[C@@H](CO)O2)cc1Br [R2 = Br, R4 = H, R3 = OH]	80	10	<1	
Cc1cn([C@H]2C[C@H](CN=[N+]=[N-])[C@@H](CO)O2)c(=O)[nH]c1=O [R4 = H, R3 = CH2N3]	15	3		
Nc1ccn([C@H]2C[C@H](O)[C@@H](CO)O2)c(=O)n1 [R4 = H, R5 = H, R3 = OH (dC), dC]	<1	90		TK2 ([2]; listed as R2 = H, X = C (dC)): 90; TK2 ([2]; listed as R4 = H, R5 = H, R2 = H (dC)): 90; TK2 ([2]; listed as β-D-dC): 93
O=c1ccn([C@H]2C[C@H](O)[C@@H](CO)O2)c(=O)[nH]1 [R2 = H, R4 = H, R3 = OH (dU), dU]	100	100	6	
O=c1[nH]c(=O)n([C@H]2C[C@H](O)[C@@H](CO)O2)cc1F [R2 = F, R4 = H, R3 = OH]	90	90		
O=c1ccn([C@H]2CC[C@@H](CO)O2)c(=O)[nH]1 [R2 = H, R4 = H, R3 = H (ddU), ddU]	10	2	<1	
CC(=O)O[C@@]12CO[C@@H]1C[C@H](O)[C@@]1(C)C(=O)[C@H](OC(=O)CCCCCN)C3=C(C)[C@@H](OC(=O)[C@H](O)[C@@H](NC(=O)c4ccccc4)c4ccccc4)C[C@@](O)([C@@H](OC(=O)c4ccccc4)[C@H]21)C3(C)C [PXL-10Es-ALK(5)-NH2]				Ave. MPA Act [4]: B (B=60-100)
CC(=O)O[C@@]12CO[C@@H]1C[C@H](O)[C@@]1(C)C(=O)[C@H](OC(=O)CCCCCCNC(=O)OCc3ccccc3)C3=C(C)[C@@H](OC(=O)[C@H](O)[C@@H](NC(=O)c4ccccc4)c4ccccc4)C[C@@](O)([C@@H](OC(=O)c4ccccc4)[C@H]21)C3(C)C [PXL-10Es-Alk(6)-NH(Z)]				Ave. MPA Act [4]: A (A<60)
Cc1cn([C@@H]2O[C@H](CO)[C@@H](O)[C@H]2O)c(=O)[nH]c1=O [R4 = OH, R3 = OH (RiboThymidine), RiboThymidine]	2	3		
Cc1cn([C@H]2C[C@H](O)[C@@H](CO)O2)c(=O)[nH]c1=O [R4 = H, R3 = OH (Thy), Thy]	100	100	2	
C#C[C@H]1C[C@H](n2cc(C)c(=O)[nH]c2=O)O[C@@H]1CO [R4 = H, R3 = CCH]	<1	<1		
CC(=O)O[C@H]1C(=O)[C@]2(C)[C@@H](OC(=O)CCCCCN)C[C@H]3OC[C@@]3(OC(C)=O)[C@H]2[C@H](OC(=O)c2ccccc2)[C@]2(O)C[C@H](OC(=O)[C@H](O)[C@@H](NC(=O)c3ccccc3)c3ccccc3)C(C)=C1C2(C)C [PXL-7Es-ALK(5)-NH2]				Ave. MPA Act [4]: A (A<60)
